What was measured:
[1] = tested on: PSMA-expressing LNCAP cancer xenografts; assay: Biodistribution of ^68Ga-labeled PSMA-targeting tracers; assay type: in vivo, mice; conditions: 1 h post-injection
Method: (§1) Imaging and biodistribution experiments were performed using NODSCID 1L2RγKO male mice. Mice were anesthetized by inhalation with 2% isoflurane in oxygen, and implanted subcutaneously with 1×10^7 LNCaP cells behind left shoulder. Mice were imaged or used in biodistribution studies when the tumor grew up to reach 5-8 mm in diameter during 5-6 weeks.
(§2) PET imaging experiments were conducted using Siemens Inveon micro PET/CT scanner. Each tumor bearing mouse was injected 6-8 MBq of Ga-68 labeled tracer through the tail vein under anesthesia (2% isoflurane in oxygen). The mice were allowed to recover and roam freely in their cage. After 50 min, the mice were sedated again with 2% isoflurane in oxygen inhalation and positioned in the scanner. A 10-min CT scan was conducted first for localization and attenuation correction after segmentation for reconstructing the PET images. Then, a 10-min static PET imaging was performed to determined uptake in tumor and other organs. The mice were kept warm by a heating pad during acquisition. For imaging studies acquired at 3 h post-injection (p.i.), the mice were placed in the micro PET/CT scanner at 170 min p.i. Then, the CT acquisitions were conducted as described above, a 15-min static PET imaging was performed to determined uptake in tumor and other organs.
For biodistribution studies, the mice were injected with the radiotracer as described above. At predetermined time points (1 or 3 h for ^68Ga studies; 1, 4, 24, 72, or 120 h for ^177Lu studies), the mice was anesthetized with 2% isoflurane inhalation, and euthanized by CO2 inhalation. Blood was withdrawn immediately from the heart, and the organs/tissues of interest were collected. The collected organs/tissues were weighed and counted using a Perkin Elmer (Waltham, MA) Wizard2 2480 gamma counter. The uptake in each organ/tissue was normalized to the injected dose using a standard curve, and expressed as the percentage of the injected dose per gram of tissue (% ID/g).

LNCaP tumors = assay: PET/CT imaging of ^68Ga-labeled tracers; assay type: in vivo, mice; conditions: FIG. 3
Method: as §1, §2

Row | Tissue (% ID/g): Adrenal glands [1] | Tissue (% ID/g): Blood [1] | Tissue (% ID/g): Bone [1] | Tissue (% ID/g): Brain [1] | Tissue (% ID/g): Fat [1] | Tissue (% ID/g): Heart [1] | Tissue (% ID/g): Intestine [1] | Tissue (% ID/g): Kidneys [1] | Tissue (% ID/g): Lacrimal [1] | Tissue (% ID/g): Liver [1] | Tissue (% ID/g): Lungs [1] | Tissue (% ID/g): Muscle [1] | Tissue (% ID/g): Pancreas [1] | Tissue (% ID/g): Salivary [1] | Tissue (% ID/g): Seminal [1] | Tissue (% ID/g): Spleen [1] | Tissue (% ID/g): Stomach [1] | Tissue (% ID/g): Tail [1] | Tissue (% ID/g): Testes [1] | Tissue (% ID/g): Thyroid [1] | Compound | also measured
1 | 1.84 ± 0.95 % ID/g | 0.70 ± 0.19 % ID/g | 0.54 ± 0.20 % ID/g | 0.06 ± 0.02 % ID/g | 0.45 ± 0.11 % ID/g | 0.30 ± 0.06 % ID/g | 0.29 ± 0.06 % ID/g | 68.5 ± 28.2 % ID/g | 1.33 ± 0.90 % ID/g | 0.24 ± 0.06 % ID/g | 0.82 ± 0.26 % ID/g | 0.28 ± 0.13 % ID/g | 0.71 ± 1.04 % ID/g | 0.83 ± 0.22 % ID/g | 0.43 ± 0.31 % ID/g | 1.34 ± 0.54 % ID/g | 0.10 ± 0.03 % ID/g | 0.90 ± 0.56 % ID/g | 0.35 ± 0.22 % ID/g | 0.35 ± 0.08 % ID/g | CCCCCC[C@H](NC(=O)[C@H]1CC[C@H](CNC(=O)CN2CCN(CC(=O)[O-])CCN(CC(=O)[O-])CCN(CC(=O)[O-])CC2)CC1)C(=O)NCCCC[C@H](NC(=O)N[C@@H](CCC(=O)O)C(=O)O)C(=O)O.[68Ga+3] [^68Ga-HTK03026] | Tissue (% ID/g): Tumor [1]: 12.5 ± 2.90 % ID/g; Tissue (% ID/g): Urine [1]: 575 ± 245 % ID/g; tumor-to-background contrast ratio Tumor: Blood [1]: 18.6 ± 5.54; tumor-to-background contrast ratio Tumor: Muscle [1]: 52.8 ± 24.9; tumor-to-background contrast ratio Tumor: kidney [1]: 0.22 ± 0.15; Tissue (% ID/g): Tumor ([1]; listed as 68Ga-labeled HTK03026): ~13 % ID/g; uptake in PET/CT images (LNCaP tumors): higher uptake was observed in LNCap tumor xenografts, kidneys and urinary bladders
2 | 3.55 ± 2.33 % ID/g | 1.56 ± 0.57 % ID/g | 0.70 ± 0.33 % ID/g | 0.06 ± 0.03 % ID/g | 1.03 ± 0.67 % ID/g | 0.56 ± 0.24 % ID/g | 0.44 ± 0.12 % ID/g | 85.6 ± 73.5 % ID/g | 1.00 ± 0.56 % ID/g | 0.46 ± 0.10 % ID/g | 1.66 ± 0.67 % ID/g | 0.48 ± 0.37 % ID/g | 0.57 ± 0.20 % ID/g | 1.86 ± 0.91 % ID/g | 10.6 ± 10.9 % ID/g | 3.36 ± 2.54 % ID/g | 0.17 ± 0.10 % ID/g | 0.98 ± 0.38 % ID/g | 0.56 ± 0.18 % ID/g | 0.76 ± 0.33 % ID/g | O=C([O-])CN1CCN(CC(=O)[O-])CCN(CC(=O)NC[C@H]2CC[C@H](C(=O)N[C@@H](Cc3ccc4cc5ccccc5cc4c3)C(=O)NCCCC[C@H](NC(=O)N[C@@H](CCC(=O)O)C(=O)O)C(=O)O)CC2)CCN(CC(=O)[O-])CC1.[68Ga+3] [^68Ga-HTK03027] | Tissue (% ID/g): Tumor [1]: 13.3 ± 5.44 % ID/g; Tissue (% ID/g): Urine [1]: 844 ± 645 % ID/g; tumor-to-background contrast ratio Tumor: Blood [1]: 8.57 ± 2.83; tumor-to-background contrast ratio Tumor: Muscle [1]: 35.0 ± 18.7; tumor-to-background contrast ratio Tumor: kidney [1]: 0.27 ± 0.20; Tissue (% ID/g): Tumor ([1]; listed as 68Ga-labeled HTK03027): ~13 % ID/g; uptake in PET/CT images (LNCaP tumors): higher uptake was observed in LNCap tumor xenografts, kidneys and urinary bladders
